Assay results: patent US20240059703A1 (AMGEN INC., priority 2021, published 2024)

Target: KRAS G12C (Homo sapiens (Human), UniProt P01116, C118A/G12C)
Assay: 2 h coupled exchange assay
Type: biochemical
Details: Avg 2 h Coupled exchange IC50, 2 h compound pre-incubation
Method: The term “2 h coupled exchange assay” or “20 h coupled exchange assay” as used herein refers to the assay described in the Section entitled “BIOLOGICAL EVALUATION.”

Sequence of KRAS G12C (P01116 other isoform, or with tags, fused parts or gaps G12C/C118A): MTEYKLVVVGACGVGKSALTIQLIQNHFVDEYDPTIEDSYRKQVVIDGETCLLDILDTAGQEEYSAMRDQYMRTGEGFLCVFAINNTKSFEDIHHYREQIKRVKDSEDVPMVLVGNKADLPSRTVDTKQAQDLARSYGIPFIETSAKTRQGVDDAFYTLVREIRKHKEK

SMILES	IC50 [nM]
C=CC(=O)N1CC2(CCN(c3nc4c(c(-c5c(C)ccc6cn[nH]c56)c3F)COC(C)(C)C4)C2)C1 [Example 14-54, 1-(6-(3-fluoro-7,7-dimethyl-4-(6-methyl-1H-indazol-7-yl)-7,8-dihydro-5H-pyrano[4,3-b]pyridin-2-yl)-2,6-diazaspiro[3.4]octan-2-yl)-2-propen-1-one]	349
C=CC(=O)N1CC2(CCN(c3nc4c(c(-c5cccc6cc[nH]c56)c3C#N)C[C@H]3C[C@@H]4C3(C)C)C2)C1 [Example 14-22, (1R,9R)-6-(1H-indol-7-yl)-10,10-dimethyl-4-(2-(2-propenoyl)-2,6-diazaspiro[3.4]octan-6-yl)-3-azatricyclo[7.1.1.0^2,7]undeca-2,4,6-triene-5-carbonitrile]	606
C=CC(=O)N1CC2(CCN(c3nc4cc(-c5ccnn5C)ccc4c(-c4cc(O)cc(F)c4F)c3C)C2)C1 [Example 16-13, 1-(6-(4-(2,3-difluoro-5-hydroxyphenyl)-3-methyl-7-(1-methyl-1H-pyrazol-5-yl)-2-quinolinyl)-2,6-diazaspiro[3.4]octan-2-yl)-2-propen-1-one]	368
C=CC(=O)N1CC2(CCN(c3nc4c(c(-c5c(C)ccc6cnn(C)c56)c3F)COC(C)(C)C4)C2)C1 (single isomer, unassigned) [Example 14-102, (P)-1-(6-(4-(1,6-dimethyl-1H-indazol-7-yl)-3-fluoro-7,7-dimethyl-7,8-dihydro-5H-pyrano[4,3-b]pyridin-2-yl)-2,6-diazaspiro[3.4]octan-2-yl)-2-propen-1-one]	55600

Same assay, conditions: Avg 2 h Coupled exchange IC50, 2 h compound pre-incubation, SOS-mediated nucleotide exchange

SMILES	IC50 [nM]
C=CC(=O)N1CC2(CCN(c3nc4c(c(-c5c(C)ccc6[nH]ncc56)c3C)CCC(C)(C)C4)C2)C1 (single isomer, unassigned) [Example 2-12, (M)-1-(6-(3,7,7-trimethyl-4-(5-methyl-1H-indazol-4-yl)-5,6,7,8-tetrahydro-2-quinolinyl)-2,6-diazaspiro[3.4]octan-2-yl)-2-propen-1-one]	1110
C=CC(=O)N1CC2(CCN(c3nc4c(c(-c5c(C)ccc6cnn(C)c56)c3C#N)CO[C@@H](C)C4)C2)C1 [Example 13-142, (7)-2-(2-acryloyl-2,6-diazaspiro[3.4]octan-6-yl)-4-(1,6-dimethyl-1H-indazol-7-yl)-7-methyl-7,8-dihydro-5H-pyrano[4,3-b]pyridine-3-carbonitrile]	620
C=CC(=O)N1CC2(CCN(c3nc4c(c(-c5c(C)ccc6cnn(C)c56)c3C#N)C[C@H]3C[C@@H]4C3(C)C)[C@@H]2CO)C1 [Example 13-61, (1R,9R)-6-(1,6-dimethyl-1H-indazol-7-yl)-4-((5S)-5-(hydroxymethyl)-2-(2-propenoyl)-2,6-diazaspiro[3.4]octan-6-yl)-10,10-dimethyl-3-azatricyclo[7.1.1.0^2,7]undeca-2,4,6-triene-5-carbonitrile]	332
C=CC(=O)N1CC2(CCN(c3nc(-c4c(C)ccc5[nH]ncc45)c4ccc(C)cc4n3)C2)C1 [Example 1-40, 1-(6-(7-methyl-4-(5-methyl-1H-indazol-4-yl)-2-quinazolinyl)-2,6-diazaspiro[3.4]octan-2-yl)-2-propen-1-one]	9010
C=CC(=O)N1CC2(CCN(c3nc4c(c(-c5c(C)ccc6cnn(C)c56)c3C#N)CC(C)(C)C4)C2)C1 (single isomer, unassigned) [Example 13-17, (M)-4-(1,6-dimethyl-1H-indazol-7-yl)-6,6-dimethyl-2-(2-(2-propenoyl)-2,6-diazaspiro[3.4]octan-6-yl)-6,7-dihydro-5H-cyclopenta[b]pyridine-3-carbonitrile]	19900
C=CC(=O)N1CC2(CCN(c3nc4c(c(-c5cccc6cnn(C)c56)c3C#N)C[C@H]3C[C@@H]4C3(C)C)C2)C1 [Example 12-40, (1R,9R)-10,10-dimethyl-6-(1-methyl-1H-indazol-7-yl)-4-(2-(2-propenoyl)-2,6-diazaspiro[3.4]octan-6-yl)-3-azatricyclo[7.1.1.0^2,7] undeca-2,4,6-triene-5-carbonitrile]	344
C=CC(=O)N1CC2(C1)CN(c1cc3ccccc3c(-c3c(C)ccc4[nH]ncc34)c1C#N)C2 [Example 1-34, 1-(5-methyl-1H-indazol-4-yl)-3-(6-(2-propenoyl)-2,6-diazaspiro[3.3]heptan-2-yl)-2-naphthalenecarbonitrile]	823
C=CC(=O)N1CC2(CCN(c3nc4c(c(-c5cccc6c(O)cccc56)c3C)COC(C)(C)C4)C2)C1 [Example 2-82, 1-(6-(4-(5-hydroxy-1-naphthalenyl)-3,7,7-trimethyl-7,8-dihydro-5H-pyrano[4,3-b]pyridin-2-yl)-2,6-diazaspiro[3,4]octan-2-yl)-2-propen-1-one]	641
C=CC(=O)N1CC2(CCN(c3nc4c(c(-c5ccccc5Cl)c3C#N)CC(C)(C)C4)C2)C1 (single isomer, unassigned) [Example 13-24, (M)-4-(2-chlorophenyl)-6,6-dimethyl-2-(2-(2-propenoyl)-2,6-diazaspiro[3.4]octan-6-yl)-6,7-dihydro-5H-cyclopenta[b]pyridine-3-carbonitrile]	1800
C=CC(=O)N1CC2(CCN(c3nc4c(c(-c5c(C)c(Cl)cc6cnn(C)c56)c3Cl)COC(C)(C)C4)C2)C1 (single isomer, unassigned) [Example 2-90, (M)-1-(6-(3-chloro-4-(5-chloro-1,6-dimethyl-1H-indazol-7-yl)-7,7-dimethyl-7,8-dihydro-5H-pyrano[4,3-b]pyridin-2-yl)-2,6-diazaspiro[3.4]octan-2-yl)-2-propen-1-one]	5
C=CC(=O)N1CC2(CCN(c3nc4c(c(-c5cccc6snnc56)c3C#N)COC(C)(C)C4)C2)C1 [Example 12-21, 4-(1,2,3-benzothiadiazol-4-yl)-7,7-dimethyl-2-(2-(2-propenoyl)-2,6-diazaspiro[3.4]octan-6-yl)-7,8-dihydro-5H-pyrano[4,3-b]pyridine-3-carbonitrile]	601
C=CC(=O)N1CC2(CCN(c3nc4c(c(-c5cccc6ccn(C)c56)c3C#N)COC(C)(C)C4)C2)C1 [Example 2-30, 7,7-dimethyl-4-(1-methyl-1H-indol-7-yl)-2-(2-(2-propenoyl)-2,6-diazaspiro[3.4]octan-6-yl)-7,8-dihydro-5H-pyrano[4,3-b]pyridine-3-carbonitrile]	750
C=CC(=O)N1CC2(CCN(c3nc4c(c(-c5c(C)ccc6cnn(C)c56)c3C#N)COC(C)(C)C4)C2)C1 (single isomer, unassigned) [Example 13-59, (M)-4-(1,6-dimethyl-1H-indazol-7-yl)-7,7-dimethyl-2-(2-(2-propenoyl)-2,6-diazaspiro[3.4]octan-6-yl)-7,8-dihydro-5H-pyrano[4,3-b]pyridine-3-carbonitrile]	32200
C=CC(=O)N1CC2(CCN(c3nc4ccccc4c(-c4c(C)ccc5[nH]ncc45)c3C)C2)C1 (single isomer, unassigned) [Example 2-55, (P)-1-(6-(3-methyl-4-(5-methyl-1H-indazol-4-yl)-2-quinolinyl)-2,6-diazaspiro[3.4]octan-2-yl)-2-propen-1-one]	419
C=CC(=O)N1CC2(CCN(c3nc4c(c(-c5ccccc5Cl)c3C#N)C[C@H]3C[C@@H]4C3(C)C)C2)C1 [Example 2-63, (1R,9R)-6-(2-chlorophenyl)-10,10-dimethyl-4-(2-(2-propenoyl)-2,6-diazaspiro[3.4]octan-6-yl)-3-azatricyclo[7.1.1.0^2,7]undeca-2,4,6-triene-5-carbonitrile]	793
